Experimental data taken from patent US4578245A, “Multilayer analytical element” (Fuji Photo Film Co., Ltd., priority 1982, dated 1986).

Test: Relative Sensitivity in Aqueous Solution System (color formation with H2O2, peroxidase and 1,7-dihydroxynaphthalene)
Conditions: relative steepness of calibration curve; reference (C1) = 1.0; pH 6.0; 37° C., 10 min; 515 nm
Description: The following color-forming composition solutions were prepared using, as coupler, 1,7-dihydroxynaphthalene and, as chromogen, the compounds (1), (6), (7), (18), (C1) and (C2), respectively.
1,7-Dihydroxynaphthalene: 50 μmol
Phosphate buffer: added to adjust to pH 6.0
The color-forming solution having the above composition (5 ml.) was incubated at 37° C. for 3 min., and subsequently 50 μl. of aqueous H2 O2 solution (four levels from 1 mmol to 6 mmol and blank, respectively) was dropped into the incubated color-forming solution. The solution was further incubated at 37° C. for 10 min., and immediately subjected to transmissive spectroscopy at the wavelength of 515 nm for measurement of optical density of the formed color. The relationships between the H2 O2 concentrations and the measured optical density values on the formed color (the value was calculated by subtracting an optical density of the color formed in the blank solution from an optical density of the color formed in the aqueous H2 O2 incorporated solution) were plotted on an orthgonal axes graph to determine the steepness of slope of the calibration curve. The relative sensitivity of each compound is set forth in Table 6 in terms of a relative steepness value based on the reference steepness obtained in the measurement on the solution using the compound (C1). In Table 6, the reference steepness is given as 1.0.

SMILES | Relative Sensitivity (aq. sol.)
Cc1c(N)c(=O)n(-c2cccc(Cl)c2)n1C [(1)] | 0.99
Cc1c(N)c(=O)n(-c2c(Cl)cc(Cl)cc2Cl)n1C [Compound (6)] | 0.70
Cc1c(N)c(=O)n(-c2ccccc2)n1C [Compound (C1), 4-amino-2,3-dimethyl-1-phenyl-3-pyrazolin-5-one, reference compound] | 1.0

Next, values leading:

Relative Sensitivity (aq. sol.) | SMILES
0.82 | Cn1c(-c2ccccc2)c(N)c(=O)n1-c1ccccc1 [(18)]
0.77 | Cn1c(-c2ccccc2)c(N)c(=O)n1C [(C2), reference compound]
